Data from patent US20060045953A1 (priority 2004, published 2006).

Target: T1, hT1R1/hT1R3 umami receptor (Homo sapiens, UniProt Q7RTX0+Q7RTX1)
T1 construct: expressed in transfected cells; host or cells: HEK293 derivative stably expressing Gα15, clone I-17, expression induced with mifepristone
T1 sequence (Q7RTX1 21-841): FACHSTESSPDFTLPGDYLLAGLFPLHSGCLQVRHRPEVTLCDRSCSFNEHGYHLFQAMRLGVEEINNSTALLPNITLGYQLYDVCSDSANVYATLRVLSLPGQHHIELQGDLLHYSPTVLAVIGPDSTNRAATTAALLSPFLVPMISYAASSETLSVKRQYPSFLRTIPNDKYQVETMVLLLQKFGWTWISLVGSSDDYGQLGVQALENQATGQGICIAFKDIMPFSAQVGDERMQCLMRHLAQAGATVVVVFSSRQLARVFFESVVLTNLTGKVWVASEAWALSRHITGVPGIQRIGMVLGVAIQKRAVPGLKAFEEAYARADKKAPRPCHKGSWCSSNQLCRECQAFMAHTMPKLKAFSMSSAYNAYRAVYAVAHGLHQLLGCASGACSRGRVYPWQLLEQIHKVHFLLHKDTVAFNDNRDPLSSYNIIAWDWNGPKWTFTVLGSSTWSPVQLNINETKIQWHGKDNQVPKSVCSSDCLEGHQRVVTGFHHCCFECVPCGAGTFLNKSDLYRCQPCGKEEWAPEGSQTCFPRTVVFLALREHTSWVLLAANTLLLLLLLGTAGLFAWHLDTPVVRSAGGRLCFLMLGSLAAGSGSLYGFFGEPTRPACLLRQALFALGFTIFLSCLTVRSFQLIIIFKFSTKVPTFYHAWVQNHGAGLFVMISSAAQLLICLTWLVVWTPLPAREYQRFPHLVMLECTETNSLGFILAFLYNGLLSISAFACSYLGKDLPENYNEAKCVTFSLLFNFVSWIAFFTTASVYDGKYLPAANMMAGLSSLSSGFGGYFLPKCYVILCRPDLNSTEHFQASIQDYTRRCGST
T1 sequence (Q7RTX0 21-852): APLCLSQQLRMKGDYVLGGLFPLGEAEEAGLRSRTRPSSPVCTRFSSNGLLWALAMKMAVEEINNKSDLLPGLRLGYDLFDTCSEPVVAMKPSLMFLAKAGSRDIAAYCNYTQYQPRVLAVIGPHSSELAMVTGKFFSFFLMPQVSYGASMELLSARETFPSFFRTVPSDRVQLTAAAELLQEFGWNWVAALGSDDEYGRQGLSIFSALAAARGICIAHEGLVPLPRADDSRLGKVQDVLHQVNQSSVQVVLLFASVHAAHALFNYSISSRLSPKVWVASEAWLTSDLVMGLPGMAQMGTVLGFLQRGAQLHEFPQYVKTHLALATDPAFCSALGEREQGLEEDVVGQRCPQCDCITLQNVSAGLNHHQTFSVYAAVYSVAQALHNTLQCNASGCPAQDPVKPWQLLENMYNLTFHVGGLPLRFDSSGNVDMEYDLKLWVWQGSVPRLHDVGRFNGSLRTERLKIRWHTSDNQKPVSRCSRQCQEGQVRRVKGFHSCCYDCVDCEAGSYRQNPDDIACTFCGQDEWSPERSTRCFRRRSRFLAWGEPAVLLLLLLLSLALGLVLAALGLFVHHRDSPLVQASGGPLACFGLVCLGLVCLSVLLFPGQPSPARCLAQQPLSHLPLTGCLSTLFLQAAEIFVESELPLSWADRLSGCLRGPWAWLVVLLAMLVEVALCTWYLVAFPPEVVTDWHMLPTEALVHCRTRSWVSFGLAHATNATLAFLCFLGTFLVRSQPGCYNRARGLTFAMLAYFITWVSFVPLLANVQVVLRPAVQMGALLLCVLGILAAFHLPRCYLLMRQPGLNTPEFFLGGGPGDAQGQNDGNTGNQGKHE
Test: In vitro hT1R1/hT1R3 umami taste receptor activation assay (FLIPR, dose response)
Type: cell-based
Conditions: read-out: EC50 for activation of a hT1R1/hT1R3 umami receptor expressed in an HEK293 cell line

Row | EC50 | SMILES
1 | 15800 nM | CCCC(CCC)NC(=O)c1cnc2ccccc2c1 [Example 102, N-(heptan-4-yl)quinoline-3-carboxamide]
2 | 14200 nM | CCCC(CCC)NC(=O)c1nccc2ccccc12 [Example 103, N-(heptan-4-yl)isoquinoline-1-carboxamide]
3 | 2400 nM | O=C(NCc1ccc(OC(F)(F)F)cc1)c1cccs1 [Example 105, N-(4-(trifluoromethoxy)benzyl)thiophene-2-carboxamide]
4 | 5600 nM | COc1ccc(C(=O)NCCSCc2ccco2)cc1C [Example 106, N-(2-(furan-2-ylmethylthio)ethyl)-4-methoxy-3-methylbenzamide]
5 | 2200 nM | O=C(NCc1ccc(OC(F)(F)F)cc1)c1ccsc1 [Example 107, Thiophene-3-carboxylic acid 4-trifluoromethoxy-benzylamide]
6 | 5600 nM | COc1ccc(CNC(=O)c2sccc2C)c(OC)c1 [Example 108, 3-Methyl-thiophene-2-carboxylic acid 2,4-dimethoxy-benzylamide]
7 | 2860 nM | COc1ccc(CNC(=O)c2ccc(-c3ccccn3)s2)c(OC)c1 [Example 109, 5-Pyridin-2-yl-thiophene-2-carboxylic acid 2,4-dimethoxy-benzylamide]
8 | 6000 nM | COc1ccc(CNC(=O)c2ccnn2C)c(OC)c1 [Example 110, 2-Methyl-2H-pyrazole-3-carboxylic acid 2,4-dimethoxy-benzylamide]
9 | 2700 nM | Cc1cc(C(=O)NC(C)CCc2ccccc2)ccc1O (stereo not shown) [Example 111, 4-Hydroxy-3-methyl-N-(1-methyl-3-phenyl-propyl)-benzamide]
10 | 3860 nM | CCc1ccc(CCNC(=O)c2ccc3c(c2)OCO3)cc1 [Example 112, Benzo[1,3]dioxole-5-carboxylic acid [2-(4-ethyl-phenyl)-ethyl]-amide]
11 | 2500 nM | CCCC(NC(=O)c1ccc(OC)c(C)c1)c1ccccc1 (stereo not shown) [Example 113, 4-Methoxy-3-methyl-N-(1-phenyl-butyl)-benzamide]
12 | 1540 nM | CCCC(NC(=O)c1ccc(OC)c(C)c1)c1ccccn1 (stereo not shown) [Example 114, 4-Methoxy-3-methyl-N-(1-pyridin-2-yl-butyl)-benzamide]
13 | 4120 nM | CCCC(NC(=O)c1ccc2c(c1)OCO2)c1ccc(OC)cc1 (stereo not shown) [Example 115, Benzo[1,3]dioxole-5-carboxylic acid [1-(4-methoxy-phenyl)-butyl]-amide]
14 | 3900 nM | CCCC(NC(=O)c1ccc(OCC)c(C)c1)c1ccc(OC)cc1 (stereo not shown) [Example 116, 4-Ethoxy-N-[1-(4-methoxy-phenyl)-butyl]-3-methyl-benzamide]
15 | 2800 nM | COc1ccc([C@@H](C)NC(=O)c2ccc(OC)c(C)c2)cc1 [Example 117, 4-Methoxy-N-[1-(R)-(4-methoxy-phenyl)-ethyl]-3-methyl-benzamide]
16 | 1200 nM | O=C(NC1CCc2ccccc21)c1ccc2c(c1)OCO2 (stereo not shown) [Example 118, Benzo[1,3]dioxole-5-carboxylic acid indan-1-ylamide]
17 | 400 nM | CCC(CC)NC(=O)c1ccc(OC)c(C)c1 [Example 119, 4-methoxy-3-methyl-N-(pentan-3-yl)benzamide]
18 | 6000 nM | Cc1ccc(CCNC(=O)c2occc2C)cc1 [Example 120, 3-methyl-N-(p-tolylethyl)furan-2-carboxamide]
19 | 1660 nM | COc1ccc(CNC(=O)c2ccccc2-n2cccc2)c(OC)c1 [Example 121, N-(2,4-dimethoxybenzyl)-2-(1H-pyrrol-1-yl)benzamide]
20 | 1840 nM | COc1ccc(CNC(=O)C(=O)NCCCc2ccccn2)c(OC)c1 [Example 127, N-(2,4-Dimethoxy-benzyl)-N′-(3-pyridin-2-yl-propyl)-oxalamide]

Row | EC50 | SMILES
21 | 750 nM | COc1ccc(CNC(=O)C(=O)NCCc2ccccn2)cc1 [Example 128, N-(4-Methoxybenzyl)-N′-(2-pyridin-2-yl-ethyl)-oxalamide]
22 | 1640 nM | COc1ccc(CNC(=O)C(=O)NCCc2ncccc2C)c(OC)c1 [Example 129, N-(2,4-Dimethoxybenzyl)-N′-(2-(3-methylpyridin-2-yl)ethyl)oxalamide]
23 | 10 nM | O=C(NCCc1ccccn1)C(=O)NCc1ccccc1Cl [Example 136, N-(2-chlorobenzyl)-N′-(2-(pyridin-2-yl)ethyl)oxalamide]
24 | 300 nM | O=C(NCCc1ccccn1)C(=O)NCc1cccc2c1OCCO2 [Example 137, N-((2,3-dihydrobenzo[b][1,4]dioxin-5-yl)methyl)-N′-(2-(pyridin-2-yl)ethyl) oxalamide]
25 | 500 nM | O=C(NCCc1ccccn1)C(=O)NCc1ccc2c(c1)OCO2 [Example 138, N-(benzo[d][1,3]dioxol-5-ylmethyl)-N′-(2-(Pyridin-2-yl)ethyl)oxalamide]
26 | 790 nM | CCc1ccc(CNC(=O)C(=O)NCCc2ccccn2)cc1 [Example 139, N-(4-Ethylbenzyl)-N′-(2-(pyridin-2-yl)ethyl)oxalamide]
27 | 1780 nM | O=C(NCCc1ccccn1)C(=O)NCc1ccc2occc2c1 [Example 140, N-(Benzofuran-5-ylmethyl)-N′-(2-(pyridin-2-yl)ethyl)oxalamide]
28 | 3630 nM | COC(=O)c1ccc(CNC(=O)C(=O)NCCc2ccccn2)cc1 [Example 141, N-((4-Methoxycarbonylphenyl)methyl)-N′-(2-(pyridin-2-yl)ethyl)oxalamide]
29 | 8500 nM | CC(=O)Oc1ccccc1CNC(=O)C(=O)NCCc1ccccn1 [Example 142]
30 | 400 nM | COc1ccc(CNC(=O)C(=O)NC(C)Cc2ccccn2)c(OC)c1 (stereo not shown) [Example 143, N-(2,4-Dimethoxybenzyl)-N′-(1-(Pyridin-2-yl)propan-2-yl)oxalamide]
31 | 1070 nM | COc1ccc(CNC(=O)C(=O)NCC(C)c2ccccn2)c(OC)c1 (stereo not shown) [Example 144, N-(294-Dilmethoxybenzyl)-N′-(2-(pyridin-2-yl)propyl)oxalamide]
32 | 590 nM | Cc1ccccc1CNC(=O)C(=O)NCCc1ccccn1 [Example 145]
33 | 690 nM | COc1cccc(CNC(=O)C(=O)NCCc2ccccn2)c1OC [Example 146, N-(2,3-Dimethoxybenzyl)-N′-(2-(pyridin-2-yl)ethyl)oxalamide]
34 | 960 nM | CSc1ccccc1CNC(=O)C(=O)NCCc1ccccn1 [Example 147, N-(2-(Methylthio)benzyl)-N′-(2-(pyridin-2-yl)ethyl)oxalamide]
35 | 3110 nM | O=C(NCCc1ccccn1)C(=O)NCc1ccccc1O [Example 148, N-(2-Hydroxybenzyl)-N′-(2-(pyridin-2-yl)ethyl)oxalamide]
36 | 170 nM | O=C(NCCc1ccccn1)C(=O)NCc1cccc2c1OCO2 [Example 149, N-(Benzo[d][1,3]dioxol-4-ylmethyl)-N′-(2-(pyridin-2-yl)ethyl)oxalamide]
37 | 740 nM | O=C(NCCc1ccccn1)C(=O)NCc1cc2ccccc2s1 [Example 150, N-(Benzo[b]thiophen-2-ylmethyl)-N′-(2-(pyridin-2-yl)ethyl)oxalamide]
38 | 4400 nM | O=C(NCCc1ccccn1)C(=O)NCc1nc2ccccc2s1 [Example 151, N-(Benzo[d]thiazol-2-ylmethyl)-N′-(2-(pyridin-2-yl)ethyl)oxalamide]
39 | 4900 nM | Cc1ccc(CNC(=O)C(=O)NCCc2ccccn2)o1 [Example 152, N-((5-Methylfuran-2-yl)methyl)-N2-(2-(pyridin-2-yl)ethyl)oxalamide]
40 | 1820 nM | Cc1occc1CNC(=O)C(=O)NCCc1ccccn1 [Example 153, N-((2-Methylfuran-3-yl)methyl)-N′-(2-(pyridin-2-yl)ethyl)oxalamide]
